In patent US7294637B2 (Sepracor, Inc., priority 2000, dated 2007):
Where two headings read alike, the source gives them in different places.

Experiments:
serotonin transporter = serotonin transporter (Homo sapiens, UniProt P31645); assay: 5-HT uptake: displacement of serotonin ligands in vitro (methods of Gu et al.); type: binding; settings: displacement of serotonin ligands in vitro; read-out: 5-HT Uptake, Uptake Profile (IC50)
[1] = biological target: norepinephrine transporter (Homo sapiens, UniProt P23975); assay: NE uptake: displacement of norephinephrine ligands in vitro (methods of Galli et al.); type: binding
Chain of norepinephrine transporter (P23975 whole entry): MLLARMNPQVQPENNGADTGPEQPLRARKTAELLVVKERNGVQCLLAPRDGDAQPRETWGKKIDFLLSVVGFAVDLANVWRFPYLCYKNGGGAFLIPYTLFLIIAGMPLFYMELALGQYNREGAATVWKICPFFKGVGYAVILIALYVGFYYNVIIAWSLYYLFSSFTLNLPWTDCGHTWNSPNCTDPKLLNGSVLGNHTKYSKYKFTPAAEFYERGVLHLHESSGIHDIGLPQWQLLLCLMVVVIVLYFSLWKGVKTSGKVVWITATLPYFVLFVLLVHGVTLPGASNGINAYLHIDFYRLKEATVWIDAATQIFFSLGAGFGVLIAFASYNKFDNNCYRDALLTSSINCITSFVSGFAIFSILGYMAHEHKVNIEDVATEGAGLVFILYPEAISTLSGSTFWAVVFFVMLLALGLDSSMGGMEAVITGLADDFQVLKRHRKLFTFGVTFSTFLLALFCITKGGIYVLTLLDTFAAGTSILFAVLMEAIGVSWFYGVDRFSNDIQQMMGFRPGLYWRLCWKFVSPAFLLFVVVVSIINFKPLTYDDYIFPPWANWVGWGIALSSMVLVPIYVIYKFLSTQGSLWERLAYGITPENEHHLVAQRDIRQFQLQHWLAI

dopamine transporter = dopamine transporter (Homo sapiens, UniProt Q01959); assay: DA uptake: displacement of dopamine ligands in vitro (methods of Gu et al.)
Chain of dopamine transporter (Q01959 whole entry): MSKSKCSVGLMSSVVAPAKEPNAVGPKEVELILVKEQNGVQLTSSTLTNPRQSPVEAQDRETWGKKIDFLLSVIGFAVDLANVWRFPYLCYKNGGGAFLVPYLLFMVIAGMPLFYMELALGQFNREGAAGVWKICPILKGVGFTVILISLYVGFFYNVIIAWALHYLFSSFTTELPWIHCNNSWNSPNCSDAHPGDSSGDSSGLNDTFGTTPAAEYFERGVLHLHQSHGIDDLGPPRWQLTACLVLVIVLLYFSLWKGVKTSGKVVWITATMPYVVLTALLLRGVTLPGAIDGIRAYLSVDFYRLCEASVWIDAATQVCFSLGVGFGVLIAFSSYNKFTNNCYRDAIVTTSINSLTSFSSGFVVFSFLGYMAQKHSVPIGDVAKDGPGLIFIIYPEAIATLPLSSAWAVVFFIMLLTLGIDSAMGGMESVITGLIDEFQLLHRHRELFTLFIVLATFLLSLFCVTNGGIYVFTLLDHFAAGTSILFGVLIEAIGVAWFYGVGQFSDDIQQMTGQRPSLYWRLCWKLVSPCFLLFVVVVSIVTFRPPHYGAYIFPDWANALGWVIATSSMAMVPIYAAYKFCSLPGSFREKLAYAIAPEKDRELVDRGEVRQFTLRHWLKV

[2] = NE Uptake, Uptake Profile (IC50, nM)
[3] = DA Uptake, Uptake Profile (IC50, nM), displacement of dopamine ligands in vitro
[4] = read-out: NE Uptake, Uptake Profile (IC50)

Chain of serotonin transporter (P31645 whole entry): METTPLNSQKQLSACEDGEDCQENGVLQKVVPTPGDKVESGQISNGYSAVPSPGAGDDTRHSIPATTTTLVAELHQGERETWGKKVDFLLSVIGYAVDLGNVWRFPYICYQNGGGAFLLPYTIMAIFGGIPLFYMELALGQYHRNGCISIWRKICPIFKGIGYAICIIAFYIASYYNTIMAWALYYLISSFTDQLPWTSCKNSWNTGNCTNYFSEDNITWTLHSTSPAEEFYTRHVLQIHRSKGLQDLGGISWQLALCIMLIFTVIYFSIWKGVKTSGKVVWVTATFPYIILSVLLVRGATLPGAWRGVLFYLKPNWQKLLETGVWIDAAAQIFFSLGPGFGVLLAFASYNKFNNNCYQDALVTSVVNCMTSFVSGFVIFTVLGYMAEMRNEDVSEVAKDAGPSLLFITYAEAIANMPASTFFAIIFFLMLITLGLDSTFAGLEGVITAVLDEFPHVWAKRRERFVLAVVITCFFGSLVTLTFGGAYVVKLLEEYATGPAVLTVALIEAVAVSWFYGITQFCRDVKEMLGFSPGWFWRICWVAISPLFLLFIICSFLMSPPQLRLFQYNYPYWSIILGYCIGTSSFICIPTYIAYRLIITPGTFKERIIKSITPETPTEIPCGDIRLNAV

| Structure (SMILES) | IC50 (serotonin transporter) [nM] | IC50 [1, 2] [nM] | IC50 (dopamine transporter; [3]) [nM] | IC50 (dopamine transporter; read-out: DA Uptake, Uptake Profile (IC50), displacement of dopamine ligands in vitro) [nM] | IC50 [1, 4] [nM] | IC50 (dopamine transporter) [nM] |
| --- | --- | --- | --- | --- | --- | --- |
| CN(C)CC(Oc1ccc(C(F)(F)F)cc1)C1CCCN(C(=O)C2(c3ccc(Cl)cc3)CCC2)C1 (racemic) [compound 173] | < 100 | > 1000 | > 1000 |  |  |  |
| CN(C)CC(Oc1ccc(C(F)(F)F)cc1)C1CCCN(CC2(c3ccc(Cl)cc3)CCC2)C1 (racemic) [compound 174] | < 100 | < 1000 | < 100 |  |  |  |
| CN(C)CC(Oc1ccc(C(F)(F)F)cc1)C1CCCN(CC2(c3ccc(Cl)cc3)CCC2)C1 (racemic) [compound 175] | < 1000 | > 1000 | < 1000 |  |  |  |
| Clc1ccc(C2(CN3CCCC(COc4ccccc4)C3)CCC2)cc1 (single isomer, unassigned) [compound 5] |  |  | < 1000 |  |  |  |
| Clc1ccc(C2(CN3CCCC(COc4ccccc4)C3)CCC2)cc1 (single isomer, unassigned) [compound 6] |  |  |  | < 1000 |  |  |
| OC(CN1CCCC(CCc2ccccc2)C1)c1ccc(Cl)cc1 (single isomer, unassigned) [compound 141, 1-(4-Chloro-phenyl)-2-(3-phenethyl-piperidin-1-yl)-ethanol] | < 1000 | < 1000 | < 1000 |  |  |  |
| OC(CN1CCCC(CCc2ccccc2)C1)c1ccc(Cl)cc1 (single isomer, unassigned) [compound 142, 1-(4-Chloro-phenyl)-2-(3-phenethyl-piperidin-1-yl)-ethanol] | < 100 | < 1000 | < 1000 |  |  |  |
| OC(CN1CCCC(CCc2ccc(C(F)(F)F)cc2)C1)c1ccc(Cl)cc1 (single isomer, unassigned) [compound 151, 1-(4-Chloro-phenyl)-2-{3-[2-(4-trifluoromethyl-phenyl)-ethyl]-piperidin-1-yl}-ethanol] | < 1000 | < 1000 | < 1000 |  |  |  |
| OC(CN1CCCC(CCc2ccc(C(F)(F)F)cc2)C1)c1ccc(Cl)cc1 (single isomer, unassigned) [compound 152, 1-(4-Chloro-phenyl)-2-{3-[2-(4-trifluoromethyl-phenyl)-ethyl]-piperidin-1-yl}-ethanol] | < 100 | < 1000 | < 1000 |  |  |  |
| OC(CN1CCCC(CCc2ccc(C(F)(F)F)cc2)C1)c1ccc(Cl)cc1 (single isomer, unassigned) [compound 153, 1-(4-Chloro-phenyl)-2-{3-[2-(4-trifluoromethyl-phenyl)-ethyl]-piperidin-1-yl}-ethanol] | < 10 | < 100 | < 100 |  |  |  |
| OC(CN1CCCC(CCc2ccc(C(F)(F)F)cc2)C1)c1ccc(Cl)cc1 (single isomer, unassigned) [compound 154, 1-(4-Chloro-phenyl)-2-{3-[2-(4-trifluoromethyl-phenyl)-ethyl]-piperidin-1-yl}-ethanol] | < 10 | < 100 | < 10 |  |  |  |
| FC(F)(F)c1ccc(OCC2CCCN(CC3COc4ccccc4O3)C2)cc1 (single isomer, unassigned) [compound 176, 1-(2,3-Dihydro-benzo[1,4]dioxin-2-ylmethyl)-3-(4-trifluoromethyl-phenoxymethyl)-piperidine] | < 1000 | > 1000 | < 1000 |  |  |  |
| FC(F)(F)c1ccc(OCC2CCCN(CC3COc4ccccc4O3)C2)cc1 (single isomer, unassigned) [compound 177, 1-(2,3-Dihydro-benzo[1,4]dioxin-2-ylmethyl)-3-(4-trifluoromethyl-phenoxymethyl)-piperidine] | < 1000 | > 1000 | > 1000 |  |  |  |
| FC(F)(F)c1ccc(OCC2CCCN(CC3COc4ccccc4O3)C2)cc1 (single isomer, unassigned) [compound 178, 1-(2,3-Dihydro-benzo[1,4]dioxin-2-ylmethyl)-3-(4-trifluoromethyl-phenoxymethyl)-piperidine] | < 1000 | < 1000 | < 1000 |  |  |  |
| FC(F)(F)c1ccc(OCC2CCCN(CC3COc4ccccc4O3)C2)cc1 (single isomer, unassigned) [compound 179, 1-(2,3-Dihydro-benzo[1,4]dioxin-2-ylmethyl)-3-(4-trifluoromethyl-phenoxymethyl)-piperidine] | < 1000 | < 1000 | > 1000 |  |  |  |
| OC(CN1CCCC(CCc2ccc(C(F)(F)F)cc2)C1)C1(c2ccc(Cl)cc2)CCC1 (single isomer, unassigned) [compound 192, 1-[1-(4-Chloro-phenyl)-cyclobutyl]-2-{3-[2-(4-trifluoromethyl-phenyl)-ethyl]-piperidin-1-yl}-ethanol] | < 1000 | < 1000 | < 10 |  |  |  |
| OC(CN1CCCC(CCc2ccc(C(F)(F)F)cc2)C1)C1(c2ccc(Cl)cc2)CCC1 (single isomer, unassigned) [compound 193, 1-[1-(4-Chloro-phenyl)-cyclobutyl]-2-{3-[2-(4-trifluoromethyl-phenyl)-ethyl]-piperidin-1-yl}-ethanol] | < 1000 | < 10 | < 10 |  |  |  |

| Structure (SMILES) | IC50 (serotonin transporter) [nM] | IC50 [1, 2] [nM] | IC50 (dopamine transporter; [3]) [nM] | IC50 (dopamine transporter; read-out: DA Uptake, Uptake Profile (IC50), displacement of dopamine ligands in vitro) [nM] | IC50 [1, 4] [nM] | IC50 (dopamine transporter) [nM] |
| --- | --- | --- | --- | --- | --- | --- |
| OC(CN1CCCC(CCc2ccc(C(F)(F)F)cc2)C1)C1(c2ccc(Cl)cc2)CCC1 (single isomer, unassigned) [compound 194, 1-[1-(4-Chloro-phenyl)-cyclobutyl]-2-{3-[2-(4-trifluoromethyl-phenyl)-ethyl]-piperidin-1-yl}-ethanol] | < 1000 | < 100 | < 10 |  |  |  |
| OC(CN1CCCC(CCc2ccc(C(F)(F)F)cc2)C1)C1(c2ccc(Cl)cc2)CCC1 (single isomer, unassigned) [compound 195, 1-[1-(4-Chloro-phenyl)-cyclobutyl]-2-{3-[2-(4-trifluoromethyl-phenyl)-ethyl]-piperidin-1-yl}-ethanol] | < 1000 | < 1000 | < 100 |  |  |  |
| OC(CN1CCCC(COc2ccc(C(F)(F)F)cc2)C1)C1(c2ccccc2OC(F)(F)F)CCC1 (single isomer, unassigned) [compound 227, 1-[1-(2-Trifluoromethoxy-phenyl)-cyclobutyl]-2-[3-(4-trifluoromethyl-phenoxymethyl)-piperidin-1-yl]-ethanol] | < 1000 | > 1000 | < 1000 |  |  |  |
| OC(CN1CCCC(COc2ccc(C(F)(F)F)cc2)C1)C1(c2ccccc2OC(F)(F)F)CCC1 (single isomer, unassigned) [compound 228, 1-[1-(2-Trifluoromethoxy-phenyl)-cyclobutyl]-2-[3-(4-trifluoromethyl-phenoxymethyl)-piperidin-1-yl]-ethanol] | > 1000 |  | > 1000 |  | > 1000 |  |
| OC(C[C@H]1CCCN(CC2(c3ccc(Cl)cc3)CCC2)C1)c1ccccc1 (stereo in doubt) [compound 182, (S)-[2-{1-[1-(4-Chloro-phenyl)-cyclobutylmethyl]-piperidin-3-yl}-1-phenyl-ethanol]] | < 1000 |  | < 100 |  | > 1000 |  |
| O=C(CC1CCCN(CC2(c3ccc(Cl)cc3)CCC2)C1)c1ccccc1 (stereo in doubt) [compound 183, (S)-[2-{1-[1-(4-Chloro-phenyl)-cyclobutylmethyl]-piperidin-3-yl}-1-phenyl-ethanone]] | < 1000 | < 1000 | < 1000 |  |  |  |
| COC(CC1CCCN(CC2(c3ccc(Cl)cc3)CCC2)C1)c1ccccc1 (stereo in doubt) [compound 184, (S)-[1-[1-(4-Chloro-phenyl)-cyclobutylmethyl]-3-(2-methoxy-2-phenyl-ethyl)-piperidine]] | < 1000 | < 1000 | < 1000 |  |  |  |
| CC(O)(C[C@H]1CCCN(CC2(c3ccc(Cl)cc3)CCC2)C1)c1ccccc1 (stereo in doubt) [compound 185, (S)-[1-{1-[1-(4-Chloro-phenyl)-cyclobutylmethyl]-piperidin-3-yl}-2-phenyl-propan-2-ol]] | > 1000 |  | < 1000 |  | > 1000 |  |
| CC(CC1CCCN(CC2(c3ccc(Cl)cc3)CCC2)C1)c1ccccc1 (stereo in doubt) [compound 186, (S)-1-[1-(4-Chloro-phenyl)-cyclobutylmethyl]-3-(2-phenyl-propyl)-piperidine] | < 1000 | < 1000 | < 1000 |  |  |  |
| O=C(N1CCCC(CO)C1)C1(c2ccc(Cl)cc2)CCC1 (centres unmarked) [compound 1, [1-(4-chloro-phenyl)-cyclobutyl]-(3-hydroxymethylpiperidin-1yl)-methadone] | > 1000 | > 1000 | > 1000 |  |  |  |
| FC(F)(F)c1ccc(OCC2CCCN(CCc3ccc(Cl)cc3)C2)cc1 (centres unmarked) [compound 8, 1-[2-(4-Chloro-phenyl)-ethyl]-3-(4-trifluoromethyl-phenoxymethyl)-piperidine] |  |  | > 1000 |  | > 1000 |  |
| FC(F)(F)c1ccc(OCC2CN(CC3(c4ccc(Cl)cc4)CCC3)CCCO2)cc1 (centres unmarked) [compound 11] | > 1000 | > 1000 | < 1000 |  |  |  |
| FC(F)(F)c1ccc(OCC2CNCCCO2)cc1 (centres unmarked) [compound 15, 2-(4-trifluoromethyl-phenoxymethyl)-[1,4]oxazepane] | > 1000 |  | > 1000 |  | > 1000 |  |
| O=C(N1CCCOC(COc2ccc(C(F)(F)F)cc2)C1)C1(c2ccc(Cl)cc2)CCC1 (centres unmarked) [compound 16, [1-(4-Chloro-phenyl)-cyclobutyl]-[2-(4-trifluoromethyl-phenoxymethyl)-[1,4]oxazepan-4-yl]-methanone] | > 1000 |  |  |  | > 1000 | > 1000 |
| O=C(CN1CCCC(COc2ccccc2)C1)C1(c2ccc(Cl)cc2)CCC1 (centres unmarked) [compound 20, 1-[1-(4-Chlorophenyl)cyclobutyl]-2-(3-phenoxymethylpiperidin-1-yl)ethanone] | < 1000 | < 1000 | < 1000 |  |  |  |
| Clc1ccc(C2(CN3CCC[C@@H](COc4ccccc4)C3)CCC2)cc1 [compound 72] |  |  | < 1000 |  |  |  |
